Assay results reported in patent US6767738B1, “Method of isolating adult mammalian CNS-derived progenitor stem cells using density gradient centrifugation” (The Salk Institute for Biological Studies, priority 1999, dated 2004).

What was measured:
[1] = tested on: clonal stem cells (AP14); assay: BrdU labeling of ACSC cultures during RA treatment; assay type: cell-based, rat
Method: Cell Culture. For proliferating conditions, clonal stem cells (AP14) were cultured in Dulbecco's Modified Eagles Medium/Ham's F12 (DMEM/F12, 1:1) containing N2 supplement (Gibco BRL, Gaithersburg, Md.) and 20 ng/ml rhFGF-2 (provided by A. Baird, Prizm Pharmaceuticals Inc., La Jolla, Calif.). Culture dishes (Becton Dickinsin Labware, Lincoln Park, N.J.) were coated with polyomithine and mouse laminin as previously described by Ray, et al., Proliferation, differentiation and long-term culture of primary hippocampal neurons, Proc Natl Acad Sci USA 90:3602-3606 (1993). For differentiation experiments, cells were plated into polyornithine/laminin coated glass chamber slides (Nunc, Naperville, Ill.) at a density of 2.5—103 per cm2. The cells were incubated for 24 hrs in normal N2 medium containing 20 ng/ml FGF-2, and then the medium was replaced by N2 medium containing 0.5% […] (FBS) and 0.01% DMSO (control solvent) or […] all-trans retinoic acid (Sigma, St. Louis, Mo.). For further differentiation, the medium was replaced by N2 medium containing 0.5% FBS and one of the following: sterile water (control solvent), mouse 2.55 NGF (50 ng/ml, Boehringer Mannheim, Indianapolis, Ind.), rhBDNF (20 ng/ml, Alomone Labs, Jerusalem, Israel), rhNT-3 (40 ng/ml, Genentech, South San Francisco, Calif.). The medium was replaced every two days. For inhibition of the tyrosine kinase activity of the Trk receptors, K-252a (100 nM, Calbiochem, San Diego, Calif.) was added to the medium.
BrdU Labeling and Visualization. Cells plated as described above were treated with BrdU ([…], Sigma) for 24 hrs before fixation. Then the cells were fixed with tris-buffered 4% paraformaldehyde for 15 min. incubated with tris-buffered 0.6% H2O2 for 30 min, and treated with 50% formamide/2×SSC for 2 hrs followed by a 30-min incubation in 2N HCl, and a neutralization in 0.1M borate (Na2B4O7) for 10 min. Cells were incubated with a-BrdU monoclonal antibody (1:400, Boehringer Mannheim) overnight at 4° C., and incubated with biotinylated horse anti-mouse secondary antibody (1:80, Jackson Immunoresearch, West Grove, Pa.) for 1 hr. Reactive cells were visualized with the avidin/biotin-peroxidase system (Vectastain Elite, Vector Laboratories, Burlingame, Calif.) and diaminobenzidine.
Upregulation of p21 was accompanied by a decrease in the number of dividing cells as evidenced by BrdU incorporation. Cultures were treated with RA for 2, 4, or 6 days and then pulsed with […] bromodeoxyuridine (BrdU) for 24 hrs on the last day of RA treatment. Cells were then fixed and processed for BrdU immunocytochemistry. In the presence of RA, there was a dramatic change in cell morphology, and a gradual decrease in the total number and proportion of BrdU-positive cells. Within 6 days of RA treatment, most of the phase-bright cells extended elaborate processes and only 29% of the cells were BrdU-positive, whereas in the serum-alone control treatment most of the cells continued to proliferate and retained rudimentary process morphology. In proliferative FGF-2-stimulated controls, more than 95% of the cells were labeled every 24 hrs.
Although proliferation decreased in response to RA, it is possible that the few remaining proliferating cells were contributing to the increase in neurons observed following RA treatment. To determine if RA induced a selective expansion of neuronal precursors, parallel cultures were treated with RA for 6 days followed by an additional 6 days in 0.5% serum alone. One set of cultures was fixed on days 2, 4, 6, 8, 10, and 12 and stained with 4,6-diamidino-2-phenylindole (DAPI) and the total number of nuclei was counted. Additional cultures were pulsed with BrdU for 72 hrs on days 0-3, 3-6, 6-9 or 9-12. The cultures were then fixed on day 12 and evaluated for the proportion of Map2ab-IR cells that had incorporated BrdU. […]

[2] = tested on: low-buoyancy cortical cells; assay: Acquisition of neuron competence by low-buoyancy cortical cells in culture; assay type: cell-based, rat
Description: Tissue dissection: Three areas were dissected from adult rat brains as follows. Rats (170-190 g Fisher 344 males or females, Harlan) were deeply anesthetized with a mixture of ketamine, xylazine, and acepromazine. Animals were decapitated and whole brains removed. First, ˜1.5 mm of each optic nerve were harvested rostral to, but not including, the optic chiasma. The brain was then bisected longitudinally and each hippocampal lobe separated from the overlaying cortical white matter using the natural separation line along the alveus hippocampus. The white matter of the fimbria and subiculum was removed as much as possible. Some white matter remained. Finally, a 1.5 mm wide cortical ribbon containing parietal and frontal segments was dissected longitudinally, proximal to the central fissure. The pial and callosal surfaces were trimmed from each cortical ribbon to remove a majority of the meninges and white matter.
Tissue dissociation and fractionation: Tissues were finely minced and digested in a solution of papain (2.5 U/ml, Worthington), DNAse (250 U/ml, Worthington), and neutral protease (1 U/ml Dispase, Boehringer) dissolved in Hanks balanced salt solution, as described in Palmer T D, Ray J, Gage F H (1995), FGF-2-Responsive Neuronal Progenitors Reside in Proliferative and Quiescent Regions of the Adult Rodent Brain. Mol Cell Neurosci 6:474-486; and Gage F H, Coates P W, Palmer T D, Kuhn H G, Fisher L J, Suhonen J O, Peterson D A, Suhr S T, Ray J (1995), Survival and differentiation of adult neuronal progenitor cells transplanted to the adult brain. Proc Natl Acad Sci USA 92:11879-11883. Cells and tissue fragments were washed 3 times with Dulbecco's Modified Eagles Medium (DMEM) containing 10% […] bovine serum (defined FBS, Hyclone). Whole digested tissue was then suspended in DMEM 10% FBS, filtered through a sterile 107 μm nylon mesh and thoroughly mixed with an equal volume of PERCOLL™ (polyvinylpyrrolidone-coated silica colloids) solution. The PERCOLL™ (polyvinylpyrrolidone-coated silica colloids) solution was made by mixing 9 parts of PERCOLL™ (polyvinylpyrrolidone-coated silica colloids) (Pharmacia) with 1 part 10X phosphate buffered saline (PBS, Irvine Scientific). The cell suspension was then fractionated by centrifugation for 30 minute, 18°C., at 20,000×g. […]
To determine how rapidly cortical cells acquired the competence to differentiate into neurons in culture, cells were isolated and cultured in growth medium for various times, allowed to differentiate in differentiation medium and then evaluated for the presence of neurons. […] Cultures were also treated with BrdU for the first 10 days and the newly generated neurons were evaluated for evidence of cell division. All neurons scored were labeled (>99%).

Compound	Map2ab-IR neurons that divided (BrdU) ([1]; after 6 days of RA treatment) [%]	Map2ab-IR cells that divided (BrdU) ([1]; days 3-6 of RA treatment)	neurons labeled with BrdU ([1]; first 24 hours upon application of RA)	neurons labeled with BrdU ([1]; second day following RA treatment)	Map2ab-IR cells that divided (BrdU) ([1]; three days immediately following start of RA treatment, 72 hr pulse)	BrdU-positive cells ([1]; within 6 days of RA treatment, 24 hr BrdU pulse) [%]	cells labeled every 24 hrs (BrdU) ([1]; proliferative FGF-2-stimulated controls)	newly generated neurons labeled with BrdU ([2]; BrdU for the first 10 days) [%]	neurons observed in cortical cultures ([2]; after three days in FGF-2)	cells that formed neurons when induced to differentiate ([2]; by 4 weeks in FGF-2 growth medium, 3 passages)
CC1=C(/C=C/C(C)=C/C=C/C(C)=C/C(=O)O)C(C)(C)CCC1 [RA, all-trans retinoic acid]	< 0.5	Less than 5%	19 +/− 3%	3 +/− 1%	Less than one third	29				
FGF-2: basic fibroblast growth factor, human recombinant, prepared in E. coli							more than 95%	> 99	the occasional neuron was observed	roughly 10%
